Source: US20200237766A1, “PKM2 ACTIVATORS IN COMBINATION WITH REACTIVE OXYGEN SPECIES FOR TREATMENT OF CANCER” (TOLERO PHARMACEUTICALS, INC., priority 2017, published 2020)
Where two headings read alike, the source gives them in different places.

Target: PKM2 (Homo sapiens, UniProt P14618)
Assay: PKM2 activation biochemical assay (AC50 / max. response vs fructose 1,6-bisphosphate)
Conditions: for Max. Resp. (%): % maximum response in a biochemical assay as compared with Fructose 1,6-bisphosphate
[1] = biochemical assay, read-out: PKM2 AC50

Chain of PKM2 (P14618 whole entry): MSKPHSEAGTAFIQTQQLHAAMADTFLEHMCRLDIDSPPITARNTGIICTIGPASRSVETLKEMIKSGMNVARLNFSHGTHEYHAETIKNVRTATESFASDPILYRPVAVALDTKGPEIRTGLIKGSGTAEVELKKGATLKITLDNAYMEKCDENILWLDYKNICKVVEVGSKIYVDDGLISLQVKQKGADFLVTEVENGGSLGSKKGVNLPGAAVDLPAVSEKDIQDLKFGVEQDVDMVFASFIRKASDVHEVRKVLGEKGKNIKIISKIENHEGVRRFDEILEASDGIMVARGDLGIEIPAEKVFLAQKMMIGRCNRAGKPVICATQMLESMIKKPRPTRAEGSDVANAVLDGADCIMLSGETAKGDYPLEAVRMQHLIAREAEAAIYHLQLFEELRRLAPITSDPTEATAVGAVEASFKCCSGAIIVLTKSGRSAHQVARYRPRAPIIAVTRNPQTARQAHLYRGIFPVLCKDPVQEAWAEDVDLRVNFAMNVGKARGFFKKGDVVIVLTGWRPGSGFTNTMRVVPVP

Compound	Max. Resp. (%)	AC50 [1]	AC50
CC1CCCN(CCN(Cc2cc(N)ccc2Cl)C(=O)c2cc(C(F)(F)F)n[nH]2)C1 (stereo not drawn) [Compound 200]	100%	130 nM	
O=C(c1cc(C(F)(F)F)n[nH]1)N(Cc1ccccc1Cl)CC1CCCN1 (stereo not drawn) [Compound 232]	85%	320 nM	
Nc1cccc(Cl)c1CN(CCN1CCCCCC1)C(=O)c1cc(C(F)(F)F)n[nH]1 [Compound 218]	100%	41 nM	
O=C(c1cc(C(F)(F)F)n[nH]1)N(CCC1CCCOC1)Cc1ccccc1Cl (stereo not drawn) [Compound 36]	88%	1220 nM	
O=C(c1cc(C(F)(F)F)n[nH]1)N(CCN1CCCCCC1)Cc1ccccc1F [Compound 197]	100%	63 nM	
O=C(c1cc(C(F)(F)F)n[nH]1)N(Cc1cccc2[nH]ccc12)CC1CCC1 [Compound 6]	100%		
O=C(c1cc(C(F)(F)F)n[nH]1)N(CCN1CCCC1)Cc1cccc2[nH]ccc12 [Compound 164]	100%	113 nM	
COCCCN(Cc1ccccc1Cl)C(=O)c1cc(C(F)(F)F)n[nH]1 [Compound 31]	82%	9590 nM	
CC(CN(Cc1ccccc1Cl)C(=O)c1cc(C(F)(F)F)n[nH]1)N1CCCC1 (stereo not drawn) [Compound 181]	100%	430 nM	
O=C(c1cc(C(F)(F)F)n[nH]1)N(Cc1ccc(O)cc1F)C1CCCC1 [Compound 132]	100%	213 nM	
CN1CCC(CN(Cc2ccccc2F)C(=O)c2cc(C(F)(F)F)n[nH]2)CC1 [Compound 100]	29%	101000 nM	
CC[C@](C)(N)C(=O)Oc1ccc(CN(CC2CCC2)C(=O)c2cc(Cl)n[nH]2)c(F)c1 [Compound 115]	104%	98 nM	
CO[C@H]1CC[C@H](N(Cc2ncccc2Cl)C(=O)c2cc(C(F)(F)F)n[nH]2)CC1 [Compound 56]	48%		2580 nM
O=C(c1cc(C(F)(F)F)n[nH]1)N(Cc1ccccc1F)CC1CCOC1 (stereo not drawn) [Compound 150]	68%	16000 nM	
O=C(c1cc(C(F)(F)F)n[nH]1)N(CCN1CCCCCC1)Cc1ccc(O)cc1Cl [Compound 194]	100%	43 nM	
O=C(c1cc(Br)n[nH]1)N(CCC1CCSCC1)Cc1ccccc1F [Compound 82]	74%	1370 nM	
Cc1ccc2nc(Cn3cnc4ccccc43)cc(=O)n2c1 [PP3]	149%	755 nM	
CCN(CC)CCN(Cc1cccc(N)c1)C(=O)c1cc(C(F)(F)F)n[nH]1 [Compound 154]	100%	1430 nM	
O=C(c1cc(C(F)(F)F)n[nH]1)N(CCC1CCSCC1)Cc1c(F)cccc1F [Compound 84]	73%	697 nM	
O=C(CCSC(=S)NCc1cccnc1)c1ccc(OCc2ccccc2)cc1 [PMA15]		> 20000 nM	
O=C(c1cc(C(F)(F)F)n[nH]1)N(CCC1CCS(=O)(=O)C1)Cc1ccccn1 (stereo not drawn) [Compound 88]	96%	3600 nM	
O=C(CCSC(=S)NCc1cccnc1)c1ccc(Cl)cc1 [PMA9]		> 20000 nM	
CCOCCN(Cc1ccc(O)cc1F)C(=O)c1cc(C(F)(F)F)n[nH]1 [Compound 24]	100%	210 nM	

Compound	Max. Resp. (%)	AC50 [1]	AC50
O=C(c1cc(Cl)n[nH]1)N(CCC1CCS(=O)(=O)CC1)Cc1ccccc1F [Compound 81]	72%		1370 nM
O=C(c1cc(C(F)(F)F)n[nH]1)N(CCC1CCOCC1)Cc1ccccc1Cl [Compound 32]	107%	1000 nM	
Nc1ccc(CN(CCN2CCCCCC2)C(=O)c2cc(C(F)(F)F)n[nH]2)c(Cl)c1 [Compound 207]	75%	170 nM	
CCCC(C)N(Cc1ccccc1)C(=O)c1cc(C(F)(F)F)n[nH]1 (stereo not drawn) [Compound 16]	22%	74800 nM	
O=C(c1cc(C(F)(F)F)n[nH]1)N(CCN1CCCCCC1)Cc1ccc(O)cc1F [Compound 195]	100%		95 nM
NCCN(Cc1ccc(O)cc1F)C(=O)c1cc(C(F)(F)F)n[nH]1 [Compound 133]	100%	1270 nM	
Nc1cccc(CN(CCN2CCS(=O)(=O)CC2)C(=O)c2cc(C(F)(F)F)n[nH]2)c1 [Compound 112]	91%	1070 nM	
O=C(c1cc(C(F)(F)F)n[nH]1)N(CCN1CCS(=O)(=O)CC1)Cc1ccccc1Cl [Compound 107]	85%	873 nM	
O=C(c1cc(C(F)(F)F)n[nH]1)N(CCN1CCS(=O)(=O)CC1)Cc1ccccc1F [Compound 108]	92%		7800 nM
Nc1cccc(Cl)c1CN(CC1CCN1)C(=O)c1cc(C(F)(F)F)n[nH]1 (stereo not drawn) [Compound 233]	75%	930 nM	
Nc1ccccc1CN(CCC1CCS(=O)(=O)C1)C(=O)c1cc(C(F)(F)F)n[nH]1 (stereo not drawn) [Compound 77]	43%		34800 nM
O=C(CCSC(=S)NCc1cccnc1)c1cnc2ccccn12 [PMA33]	101%	18100 nM	
O=C(c1cc(C(F)(F)F)n[nH]1)N(CCN1CCCCCC1)Cc1cccc2nc[nH]c12 [Compound 208]	100%	125 nM	
CC1CC(C)CN(CCN(Cc2ccccc2Cl)C(=O)c2cc(C(F)(F)F)n[nH]2)C1 (stereo not drawn) [Compound 188]	60%	46 nM	
CCN(CC)CCN(Cc1cccc(Cl)c1Cl)C(=O)c1cc(C(F)(F)F)n[nH]1 [Compound 167]	100%	186 nM	
O=C(c1cc(C(F)(F)F)n[nH]1)N(CCC1CCS(=O)(=O)C1)Cc1ccncc1 (stereo not drawn) [Compound 89]	35%	58000 nM	
O=C(c1cc(C(F)(F)F)n[nH]1)N(CCC1CCOC1)Cc1c(F)cccc1F (stereo not drawn) [Compound 40]	114%		1170 nM
CC1CCCN(CCN(Cc2ccccc2F)C(=O)c2cc(C(F)(F)F)n[nH]2)C1 (stereo not drawn) [Compound 201]	100%	215 nM	
COc1c(N)cccc1CN(CCN1CCCCCC1)C(=O)c1cc(C(F)(F)F)n[nH]1 [Compound 217]	100%	230 nM	
O=C(c1cc(C(F)(F)F)n[nH]1)N(Cc1ccc(O)cc1F)C1CCOCC1 [Compound 21]		> 10000 nM	
CC1CCN(CCN(Cc2ccccc2Cl)C(=O)c2cc(C(F)(F)F)n[nH]2)CC1 [Compound 190]	100%	42 nM	
CCN1CCC(N(Cc2ccccc2F)C(=O)c2cc(C(F)(F)F)n[nH]2)C1 (stereo not drawn) [Compound 152]	68%	13500 nM	
CCN(CC)CCN(Cc1ccccc1Cl)C(=O)c1[nH]nc(Cl)c1F [Compound 193]	58%	14000 nM	

Compound	Max. Resp. (%)	AC50 [1]	AC50
O=C(c1cc(C(F)(F)F)n[nH]1)N(CCC1CCS(=O)(=O)C1)Cc1cccc(F)c1F (stereo not drawn) [Compound 68]	103%	766 nM	
O=C(c1cc(C(F)(F)F)n[nH]1)N(CCN1CCCCCC1)Cc1c(Cl)cccc1[N+](=O)[O-] [Compound 211]	100%	123 nM	
CC(C)OCCN(Cc1ccccc1Cl)C(=O)c1cc(C(F)(F)F)n[nH]1 [Compound 37]	37%	42000 nM	
O=C(c1cc(C(F)(F)F)n[nH]1)N(CCN1CCCC1)Cc1ccc(Cl)cc1Cl [Compound 165]	50%	45000 nM	
CCN(CC)CCN(Cc1cccc(F)c1Cl)C(=O)c1cc(C(F)(F)F)n[nH]1 [Compound 182]	100%		109 nM
CCCCCN(Cc1ccccc1)C(=O)c1cc(C(F)(F)F)n[nH]1 [Compound 19]	76%	920 nM	
O=C(c1cc(C(F)(F)F)n[nH]1)N(CCN1CCCCCC1)Cc1c(F)cccc1F [Compound 198]	100%	130 nM	
O=C(c1cc(C(F)(F)F)n[nH]1)N(CCC1CCOC1)Cc1ccc(O)cc1F (stereo not drawn) [Compound 34]	109%	77 nM	
O=C(c1cc(C(F)(F)F)n[nH]1)N(CCC1CCSCC1)Cc1ccccc1Cl [Compound 73]	79%	1340 nM	
CN(C)Cc1c[nH]c2cccc(CN(CC3CCC3)C(=O)c3cc(Cl)n[nH]3)c12 [Compound 118]	100%	7000 nM	
O=C(c1cc(C(F)(F)F)n[nH]1)N(Cc1ccncc1Cl)CC1CCC1 [Compound 128]	75%	9300 nM	
Nc1cccc(Cl)c1CN(CCN1CCC(F)CC1)C(=O)c1cc(C(F)(F)F)n[nH]1 [Compound 238]	100%	116 nM	
CN1CCC(CCN(Cc2ccccc2Cl)C(=O)c2cc(C(F)(F)F)n[nH]2)CC1 [Compound 102]	71%	767 nM	
CCN(CC)CCN(Cc1ccccc1Cl)C(=O)c1cc(C(F)(F)F)n[nH]1 [Compound 159]	100%	73 nM	
O=C(c1cc(C(F)(F)F)n[nH]1)N(CCN1CCCCCC1)Cc1cccc([N+](=O)[O-])c1Cl [Compound 210]	100%		133 nM
O=C(c1cc(C(F)(F)F)n[nH]1)N(Cc1cccc2[nH]ccc12)CC1COC1 [Compound 12]	101%	3270 nM	
O=C(c1cc(C(F)(F)F)n[nH]1)N(Cc1ccc(O)cc1Cl)CC1CCC1 [Compound 124]	100%	21 nM	
O=C(c1cc(C(F)(F)F)n[nH]1)N(CCC1CCS(=O)(=O)C1)Cc1cccnc1 (stereo not drawn) [Compound 90]	24%	52000 nM	
CCCCCN(Cc1ccccc1F)C(=O)c1cc(C(F)(F)F)n[nH]1 [Compound 17]	83%	138 nM	
O=C(c1cc(C(F)(F)F)n[nH]1)N(CCC1CCS(=O)(=O)CC1)Cc1ccccc1Cl [Compound 78]		485 nM	
CS(=O)(=O)N1CCC(CCN(Cc2ccccc2F)C(=O)c2cc(C(F)(F)F)n[nH]2)CC1 [Compound 99]	100%	110 nM	
